[L-RNA-N] = L-ribonucleotide (mirror-image RNA) (N: the base); {FAM} = fluorescein label
Columns and labels:
Format in all cases: biochemical
[1] = test system: D-target (Seq-ID 1 RNA with D-nucleotides); experiment: Cleavage assay: D-target with L-ribozyme
Experimental: (§1) The activities of L-ribozymes and D-ribozymes were measured in various conditions. The basic conditions were as follows. […] in 50 mM Tris-HCl buffer, pH 7.5, at 20° C. for 2 hours (ribozymes/target ratio therefore 10:1, 1:1 and 1:10). Before the reaction, target RNA and ribozyme were denatured for 2 minutes at 70° C. and cooled slowly (1° C./min) in the heating unit to 25° C. The influence of the Mg^2+ ions at concentration from 0.1 to 25 mM was investigated. Cleavage products were separated on 20% polyacrylamide gel electrophoresis in the presence of 8 M urea in 0.09 M Tris-borate buffer, pH 8.3. The fluorescence was analyzed on Phosphoimager Fuji Film FLA 5100. The data were obtained with the program Fuji Analysis Program. Diagrams were prepared with Excel.
(§2) The following were prepared as target sequences by way of contract synthesis by the company ChemGenes Corporation, Wilmington, USA: • Seq-ID 1: 5′-FAM-ACAGUCGGUCGCC-3′ (RNA, both with D-nucleotides and with L-nucleotides) and • Seq-ID 2: 5′-FAM-ACAGTCGGTCGCC-3′ (DNA, both with D-nucleotides and with L-nucleotides).
(§3) All synthesis products were labeled with fluorescein at the 5′-end.
C is the control (L-target+L-ribozyme), tracks 1 to 5 are the various MgCl2 concentrations given in the diagram (0-25 mM) for target without ribozyme, tracks 6 to 9 0.2 μM target with 2 μM ribozyme.

[2] = test system: L-target; experiment: Cleavage of L-target by L-ribozyme in human serum; settings: FIG. 12; conditions of human serum
[3] = test system: L-target (Seq-ID 1 RNA with L-nucleotides); experiment: Cleavage assay: L-target with L-ribozyme
Experimental: as §1, §2, §3

[4] = test system: D-target (Seq-ID 1 RNA with D-nucleotides); experiment: Cleavage assay: D-target with D-ribozyme; settings: FIG. 4B; MgCl2 1-25 mM; 10-fold ribozyme excess
Experimental: as §1, §2, §3

[5] = test system: L-target (Seq-ID 1 RNA with L-nucleotides); experiment: Cleavage assay: L-target with D-ribozyme; settings: FIG. 2; MgCl2 0-25 mM; 0.2 μM target with 2 μM ribozyme
Experimental: as §1, §2
All synthesis products were labeled with fluorescein at the 5′-end. […]

Substance	cleavage of D-target by L-ribozyme ([1]; FIG. 2, MgCl2 0-25 mM, 0.2 μM target with 2 μM ribozyme)	proportion of cleavage products of the D-target by L-ribozyme as a function of MgCl2 concentration ([1]; FIG. 2C, increasing Mg concentration)	proportion of cleavage products of the D-target by L-ribozyme over time ([1]; FIG. 3, 10 mM MgCl2, times 0 to 256 min, compared with L-target/D-ribozyme)	cleavage of L-target by L-ribozyme in human serum [2]	proportion of cleavage products of L-target with L-ribozyme as a function of MgCl2 concentration ([3]; FIG. 4B, MgCl2 1-25 mM, 10-fold ribozyme excess)	cleavage of L-target by L-ribozyme ([3]; FIGS. 4 to 11, all usual conditions (0.1-25 mM MgCl2, ribozyme excess to deficit))	turnover rates of L-ribozyme with L-target ([3]; FIGS. 4 to 11, relative to D-ribozyme with D-target)	proportion of cleavage products of D-target with D-ribozyme as a function of MgCl2 concentration [4]	cleavage of L-target by D-ribozyme [5]
5′-FAM-GGCGACCCUGAUGAGGCCGAAAGGCCGAAACUGU-3′ (all [L-RNA-N], 5' {FAM}, backbone not given here) [L-ribozyme]	a notable reaction certainly occurs	increases with increasing Mg concentration	increases with time	functions effectively	increases with increasing Mg concentration	effectively cuts	at least correspond to those of a D-ribozyme with a D-target	–	–
5′-FAM-GGCGACCCUGAUGAGGCCGAAAGGCCGAAACUGU-3′ (RNA, 5' {FAM}, backbone not given here) [D-ribozyme]	–	–	–	–	–	–	–	increases with increasing Mg concentration	does not cleave

From patent US20150140020A1, “PHARMACEUTICAL COMPOSITION FOR TREATING ADVERSE REACTIONS DUE TO ADMINISTRATION OF SPIEGELMERS” (Freie Universitaet Berlin, priority 2009, published 2015)
